Assay results as given in patent US9820481B2, “Encapsulation of active ingredients and method of making” (Arch Chemicals, Inc., priority 2013, dated 2017).

Assay: Degradation temperature by thermal gravimetric analysis (TGA) or differential scanning calorimetry (DSC)
Type: physicochemical
Method: The degradation temperature was determined by thermal gravimetric analysis (TGA) or differential scanning calorimetry (DSC).

In the case of zinc pyrithione [A (comp)], the “Degradation Temp” value is reported as 265 °C.
